Here are results for seven molecules from patent US12358875B2, “N-(phenyl)-indole-3-sulfonamide derivatives and related compounds as GPR17 modulators for treating CNS disorders such as multiple sclerosis” (UCB Pharma GMBH, priority 2019, dated 2025).

The target of assay [1] is T1, GPR17 (Homo sapiens, UniProt Q13304). To be noted: WO 2005/103291; cited from earlier work.
Target sequence in this assay (Q13304 whole entry, species assumed): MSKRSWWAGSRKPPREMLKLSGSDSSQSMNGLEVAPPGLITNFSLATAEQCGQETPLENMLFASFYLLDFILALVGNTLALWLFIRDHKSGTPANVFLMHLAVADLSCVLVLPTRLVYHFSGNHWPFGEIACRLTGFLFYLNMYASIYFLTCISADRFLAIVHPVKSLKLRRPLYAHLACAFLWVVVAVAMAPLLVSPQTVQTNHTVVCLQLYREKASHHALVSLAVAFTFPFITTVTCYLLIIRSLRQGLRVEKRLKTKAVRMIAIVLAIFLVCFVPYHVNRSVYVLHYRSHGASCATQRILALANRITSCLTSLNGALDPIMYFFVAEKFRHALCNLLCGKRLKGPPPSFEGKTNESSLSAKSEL
Assay [2] addresses T1, GPR17. The assay can be described thus: Calcium mobilization functional assay (Ca2+ assay), inhibition of MDL29,951 response in CHO hGPR17. Conditions: CHO hGPR17, 50 nM MDL29,951 agonist; read-out: Ca^2+ assay pIC50 (converted). Also on record: host or cells: Flp-In T-REx CHO. Format: cell-based. The method, then:
(§1) Flp-In T-REx CHO cells stably expressing human GPR17 receptor (CHO hGPR17) from Evi Kostenis' lab (Bonn University, Germany) were cultured at 37° C. in a humidified atmosphere of 5% CO2. Cells were grown in DMEM with Nutrient Mixture F-12 supplemented with hygromycin B (500 μg/ml) and blasticidin (30 μg/ml). Expression from the Flp-In locus was induced by treatment with doxycycline (1 μg/ml) for 16-20 h prior assays.
GPR17 is a G-protein coupled receptor. GPR17 activation triggers Gq-type G-protein signaling resulting in endoplasmic reticulum calcium (Ca^2+) stores release in cytosol which can be measured using Calcium 5 dye, a fluorescent indicator dye of cytosolic Ca^2+ levels. The compounds of the present invention were assessed either in the Ca^2+ assay or in the GPR17 cAMP assay, described further below.
CHO hGPR17 were defrosted and seeded at a density of 20,000 cells per well into black 384-well plates with clear bottom. Cells were incubated overnight at 37° C. in a humidified atmosphere of 5% CO2. […] Fluorescent signal relative to cytosolic Ca^2+ concentration was recorded over time at room temperature in FLIPR Tetra reader. […] Inhibitory effects of varying concentrations test compounds were measured and resulting pIC50s were determined. […]
(Calcium assays in cells follow changes in intracellular calcium, usually with a dye or a luminescent sensor.)
Target sequence in this assay (Q13304 29-367 limits assumed): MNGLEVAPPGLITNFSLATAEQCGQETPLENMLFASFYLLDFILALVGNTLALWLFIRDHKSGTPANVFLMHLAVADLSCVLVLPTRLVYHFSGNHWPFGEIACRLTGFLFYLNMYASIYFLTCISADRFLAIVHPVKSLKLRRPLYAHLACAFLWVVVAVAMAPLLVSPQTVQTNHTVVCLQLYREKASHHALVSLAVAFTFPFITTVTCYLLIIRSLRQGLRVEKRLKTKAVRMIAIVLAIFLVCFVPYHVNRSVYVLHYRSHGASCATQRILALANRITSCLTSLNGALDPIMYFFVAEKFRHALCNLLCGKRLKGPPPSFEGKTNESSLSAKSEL

Assay [3] has as its target T1, GPR17. The experiment in a line: cAMP accumulation functional assay (HTRF), Schild analysis against MDL29,951 in CHO hGPR17. Format: cell-based. Conditions: CHO hGPR17, Schild analysis vs MDL29,951, 5 μM forskolin; read-out: cAMP assay pA2 (converted). Also noted: host or cells: Flp-In T-REx CHO. As to the method:
as §1
Target sequence in this assay (Q13304 29-367 limits assumed): as above
GPR17 activation can also recruit Gi-type G-protein signaling, resulting in a decrease of intracellular cyclic adenosine monophosphate (cAMP). Intracellular cAMP changes can be measured using the HTRF cAMP dynamic assay kit from CisBio (Codolet, France). Using homogenous time-resolved fluorescence technology (HTRF), the assay is based on competition between native cAMP produced by cells and cAMP labelled with the dye d2. The tracer binding was determined by an anti-cAMP antibody labeled with cryptate.
CHO hGPR17 were detached with PBS containing EDTA and dispatched in black 384-well plates with 5,000 cells per well. Cells were first incubated for 30 minutes at room temperature in HBSS Hepes (pH 7.4) containing vehicle or varying concentrations of test GPR17 antagonist/inverse agonist compounds. Then, a dose response curve of MDL29,951 GPR17 agonist (typically from 10^−5M to 10^−10M) was added on vehicle and on each test GPR17 antagonist/inverse agonist compound concentration in a final volume of 20 μL HBSS Hepes buffer (pH 7.4) containing 1% DMSO, 5 μM forskolin and 0.1 mM IBMX. After 60 minutes incubation at room temperature, the reaction is terminated and the cells lysed by adding the d2 detection reagent and the cryptate reagent in 10 μL lysis buffer each according to manufacturer's instructions. After 60 minutes incubation, changes in cAMP concentrations are measured according to manufacturer's instructions using an Envision plate reader with laser excitation. All incubations were performed in duplicate. Data was analyzed using GraphPad Prism software using the 4-parameter logistic equation to measure MDL29,951 pEC50s in absence and presence of GPR17 antagonist/inverse agonist test compounds. Dose ratio (DR) were plotted against antagonist concentrations and Schild analysis provided estimated affinity pA2 of GPR17 antagonist/inverse agonist test compounds.
The activities of the Example compounds tested are depicted in the table below. The activity ranges A, B and C refer to pA2 values in the cAMP assay as follows: “A”: pA2 6.5≤x<7.5, “B”: pA2 7.5≤x<8.5, “C”: 8.5≤pA2.
For orientation: Cyclic AMP is a second messenger, typically raised through Gs and lowered through Gi signalling.

The structures appear in SMILES notation.

As to `NCC(=O)CCC(=O)O` [Example 5-ALA, 5 amino levulinic acid], on GPR17 [1], the “amounts needed in the assays (GPR17 activation)” value is “three digit micromolar range”.
For the molecule `Cn1cc(S(=O)(=O)Nc2ccc(C#N)cc2F)c2ccc(Cl)cc21` [Example I-1, 6-chloro-N-(4-cyano-2-fluorophenyl)-1-methylindole-3-sulfonamide], on GPR17 [2], the IC50 is 0.0316 to 0.316 µM.
The same measure, in the same setting: in the case of `COc1nc(NS(=O)(=O)c2cn(C)c3cc(Cl)ccc23)c(F)cc1Cl` [Example I-2, 6-chloro-N-(5-chloro-3-fluoro-6-methoxypyridin-2-yl)-1-methylindole-3-sulfonamide] it was 0.0316 to 0.316 µM.
As to `COc1nc(Cl)c(F)cc1NS(=O)(=O)c1cn(CC(O)CO)c2cc(Cl)ccc12` (stereo not shown) [Example I-34, 6-chloro-N-(6-chloro-5-fluoro-2-methoxypyridin-3-yl)-1-(2,3-dihydroxypropyl)indole-3-sulfonamide], the Kb at GPR17 [3] was 0.00316 to 0.0316 µM.
Consider `COc1nc(OC(F)F)c(F)cc1NS(=O)(=O)c1cn(CCO)c2nc(Cl)ccc12` [Example I-35, 6-chloro-N-[6-(difluoromethoxy)-5-fluoro-2-methoxypyridin-3-yl]-1-(2-hydroxyethyl)pyrrolo[2,3-b]pyridine-3-sulfonamide], for which the Kb on GPR17 [3] was at most 0.00316 µM.
Take `[N-]=[N+]=NCCn1cc(S(=O)(=O)Nc2cc(F)c(Br)cc2F)c2ccc(Cl)cc21` [Example I-36, 1-(2-azidoethyl)-N-(4-bromo-2,5-difluorophenyl)-6-chloroindole-3-sulfonamide]: the Kb at GPR17 [3] is 0.0316 to 0.316 µM.
On to `NCc1[nH]cc(CCC(=O)O)c1CC(=O)O` [PBG, porphobilinogen], for which the “amounts needed in the assays (GPR17 activation)” value on GPR17 [1] is “mM range”.
